According to the NIST ThermoML archive (doi:10.1021/je060247x):

Conditions: Liquid

CCCCCCCC[n+]1ccn(C)c1.F[P-](F)(F)(F)(F)F [1-octyl-3-methylimidazolium hexafluorophosphate]
mass density [kg/m3]
Conditions	100 kPa	1000 kPa	2000 kPa	3000 kPa	4000 kPa	5000 kPa	10000 kPa
293.15 K	1242.4	1242.9	1243.5	1244.1	1244.6	1245.1	1247.8
303.15 K	1233.8	1234.4	1235	1235.6	1236.1	1236.7	1239.5
313.15 K	1225.3	1225.9	1226.5	1227.1	1227.7	1228.3	1231.1
323.15 K	1217.6	1218.2	1218.8	1219.4	1220	1220.6	1223.4
333.15 K	1209.1	1209.7	1210.3	1211	1211.6	1212.2	1215.1
343.15 K	1201	1201.6	1202.3	1203	1203.6	1204.3	1207.4
353.15 K	1193.6	1194.3	1195	1195.7	1196.3	1197.1	1200.3
363.15 K	1186.2	1186.9	1187.6	1188.3	1189	1189.7	1193
373.15 K	1179.2	1179.9	1180.6	1181.3	1182	1182.7	1186.1
383.15 K	1172.7	1173.5	1174.2	1174.9	1175.6	1176.3	1179.8
393.15 K	1166	1166.8	1167.5	1168.3	1169.1	1169.8	1173.5
